Assay results as given in patent publication EP2161024A1, “Combination product for the treatment of cancer” (Universitätsklinikum Hamburg-Eppendorf, priority 2008, dated 2010).

Assays:
[1] = test system: Zelllinie H82; assay: XTT cell proliferation (growth) test with H82 cells; conditions: for Zellwachstum: single agent (alleinige Gabe), H82 cells, Figur 7
[2] = test system: OH1-Zellen; assay: XTT cell proliferation (growth) test with OH1 cells; conditions: single agent (alleinige Gabe), 1 µM to 0,001 µM, 72 h incubation, Figur 2
[3] = test system: Zelllinie H69; assay: XTT cell proliferation (growth) test with H69 cells; type: cell-based; conditions: single agent (alleinige Gabe), Figuren 5a, 5b

SMILES	Zellwachstum [1]	Wachstum der OH1-Zellen [2]	Wachstum der Zellen [3]	inhibition at 5 µM ([1]; Homo sapiens, NCI-H82, read-out: Hemmung der Proliferation) [%]
CCC(C)C(=O)OC1CC(C)C=C2C=CC(C)C(CCC3CC(O)CC(=O)O3)C21 (stereo not drawn) [Lovastatin, [8-[2-(4-hydroxy-6-oxo-oxan-2-yl)ethyl]-3,7-dimethyl-1,2,3,7,8,8a-hexahydronaphthalen-1-yl]-2-methylbutanoat]	kaum Auswirkungen auf das Zellwachstum	nicht zu einer Verringerung des Wachstums	–	–
CC(C)c1c(C(=O)Nc2ccccc2)c(-c2ccccc2)c(-c2ccc(F)cc2)n1CC[C@@H](O)C[C@@H](O)CC(=O)O [Atorvastatin, (3R,5R)-7-[2-(4-Fluorphenyl)-5-isopropyl-3-phenyl-4-(phenylcarbamoyl)pyrrol-1-yl]-3,5-dihydroxyheptansäure]	kaum Auswirkungen auf das Zellwachstum	nicht zu einer Verringerung des Wachstums	nicht zu einer Verringerung des Wachstums	–
COc1ccc(CCN2CCC(Nc3nc4ccccc4n3Cc3ccc(F)cc3)CC2)cc1 [Astemizol, 1-[(4-Fluorphenyl)methyl]-N-[1-[2-(4-methoxyphenyl)ethyl]-4-piperidyl]benzoimidazol-2-amin]	kaum Auswirkungen auf das Zellwachstum	nicht zu einer Verringerung des Wachstums	nicht zu einer Verringerung des Wachstums	50
